According to PMC10038264, “A new family of glutamate-gated chloride channels in parasitic sea louse Caligus rogercresseyi: A subunit refractory to activation by ivermectin is dominant in heteromeric assemblies” (PLOS Pathogens, 2023):
Where “and” joins values, the source holds several entries; their conditions need not be identical. Identical values can stand only once. Entries after “also recorded” stand apart in the source; their conditions may differ. Like-named read-outs stand apart in the source and are kept apart here.

Tests used:
CrGluCl-A = CrGluCl-A (Caligus rogercresseyi, UniProt A0A1W6LZ70); experiment: Two-electrode voltage-clamp of Xenopus oocytes expressing CrGluCl-A; assay type: cell-based; settings: CrGluCl-A alone
CrGluCl-A, sequence (A0A1W6LZ70 entry or part of it): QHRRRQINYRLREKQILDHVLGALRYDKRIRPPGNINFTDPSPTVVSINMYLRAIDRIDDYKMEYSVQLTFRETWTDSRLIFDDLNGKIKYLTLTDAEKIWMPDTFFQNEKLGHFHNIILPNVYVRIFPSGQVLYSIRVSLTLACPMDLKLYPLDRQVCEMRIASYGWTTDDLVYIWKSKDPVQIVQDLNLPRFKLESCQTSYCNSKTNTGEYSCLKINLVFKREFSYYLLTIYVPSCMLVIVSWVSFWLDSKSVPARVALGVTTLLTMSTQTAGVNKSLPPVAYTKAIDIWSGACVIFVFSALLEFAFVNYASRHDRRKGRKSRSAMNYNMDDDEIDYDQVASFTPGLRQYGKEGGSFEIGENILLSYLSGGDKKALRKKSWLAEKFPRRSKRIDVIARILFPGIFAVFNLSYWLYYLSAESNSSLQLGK
Experimental: (§1) Adult female Xenopus laevis frogs were anaesthetized by immersion in a1g/L solution tricaine (Ethyl 3-aminobenzoate methanesulfonate, Sigma) buffered to pH 7 with NaHCO3. Surgery was performed 30–40 min later, once the frog was completely anaesthetized judging by loss of reflexes. Ovarian lobes were removed through 1 cm abdominal incision and then kept at 16°C in Barth’s modified solution containing (in mM): 88 NaCl, 1 KCl, 0.4 CaCl2, 0.3 Ca (NO3)2, 0.8 MgSO4, 2.4 NaHCO3, 5 Hepes, 2.5 sodium pyruvate, 100 μg/ml gentamicin sulfate, 100 U/ml penicillin, 100 μg/ml streptomycin, 250 μg/ml amphotericin B, 0.22μm filtered and adjusted to pH 7.5 with Tris-Base. Osmolarity was brought to 220 mOsm with saccharose. The oocytes were manually defolliculated on the same day of extraction and the following day 20 ng cRNA in nuclease-free water was injected into stage V-VI oocytes using a FemtoJet microinjector (Eppendorf). Finally, the injected oocytes were stored in 96 well plates containing Barth’s modified solution and kept at 16°C until experiment day.
Current measurements at controlled membrane potentials (voltage-clamp experiments) were performed using two intracellular microelectrodes in defolliculated Xenopus oocytes previously microinjected with 20 ng of cRNA. Voltage-clamp recording was performed at room temperature using a TURBO TEC-10CX amplifier (npi electronic GmbH, Tamm, Germany) and PClamp 10.6 software (Axon Instruments, USA), 1 to 4 days after oocyte injection. The oocytes were recorded in a chamber (Model RC-1Z, Warner Instrumenst, USA) under continuous superfusion. […] Reference was an Ag-AgCl electrode connected to the bath via a 3 M KCl in 3% agar bridge. Currents were recorded continuously during the experiments without interruptions for solution changes. […] The signal filtered at 1 kHz was acquired with a Digidata 1440A Analog-to-Digital Converter and analyzed with Axon pClamp 10.6 software. […]

DmGluClα = test system: DmGluClα; parameters: method as in PMID 7935817, PMID 8702744, PMID 25994631; settings: read-out: EC50 glutamate; cited from earlier work
CrGluCl-B = experiment: Two-electrode voltage-clamp of Xenopus oocytes expressing CrGluCl-B; assay type: cell-based, Caligus rogercresseyi; settings: for activation by ivermectin (EC50 Ivermectin column): CrGluCl-B WT alone, 1-3 μM ivermectin
Experimental: as §1
Current measurements at controlled membrane potentials (voltage-clamp experiments) were performed using two intracellular microelectrodes in defolliculated Xenopus oocytes previously microinjected with 20 ng of cRNA. Voltage-clamp recording was performed at room temperature using a TURBO TEC-10CX amplifier (npi electronic GmbH, Tamm, Germany) and PClamp 10.6 software (Axon Instruments, USA), 1 to 4 days after oocyte injection. The oocytes were recorded in a chamber (Model RC-1Z, Warner Instrumenst, USA) under continuous superfusion. […] Reference was an Ag-AgCl electrode connected to the bath via a 3 M KCl in 3% agar bridge. Currents were recorded continuously during the experiments without interruptions for solution changes. Oocytes were held at -30 mV and a voltage protocol consisting of a voltage drop to -100 mV for 25ms followed by a 360 ms ramp from -100 mV to 60mV applied with a period of 565 ms was continuously given. The signal filtered at 1 kHz was acquired with a Digidata 1440A Analog-to-Digital Converter and analyzed with Axon pClamp 10.6 software. The solution that bathed the oocytes during the electrophysiological recordings had the following composition (mM): 115 NaCl, 2 KCl, 1.8 CaCl2, 1 MgCl2, 10 HEPES pH 7.5 obtained with NaOH. For the low chloride solution, all the NaCl was replaced with the gluconate salt of Na. This decreases chloride concentration from 122.6 to 7.6 mM while increasing that of gluconate from 0 to 115 mM. The stock solutions of the drugs in dimethyl sulfoxide (DMSO) were: 10 mM emamectin, 10 mM ivermectin, 100 mM picrotoxin. These were diluted in bath solution to obtain final concentrations.
The currents were normalized according to the extrapolated maximum current delivered by the Hill adjustment. In this way, the concentration that generates 50% of the maximum effect (EC50) and the Hill coefficient (nH) for each situation were obtained.

[1] = test system: coexpressed CrGluCl-D:CrGluCl-C; experiment: Voltage-clamp of oocytes coinjected with CrGluCl-D and CrGluCl-C; assay type: cell-based, Caligus rogercresseyi; settings: D:C ratio 1:1
Experimental: as §1, with “The oocytes were manually defolliculated on the same day of extraction and the following day 20 ng cRNA in nuclease-free water was injected into stage V-VI oocytes using a FemtoJet microinjector (Eppendorf). Finally, the injected oocytes were stored in 96 well plates containing Barth’s modified solution and kept at 16°C until experiment day.” left out
(§2) Current measurements at controlled membrane potentials (voltage-clamp experiments) were performed using two intracellular microelectrodes in defolliculated Xenopus oocytes previously microinjected with 20 ng of cRNA. […] The oocytes were recorded in a chamber (Model RC-1Z, Warner Instrumenst, USA) under continuous superfusion. […] Currents were recorded continuously during the experiments without interruptions for solution changes. […] The signal filtered at 1 kHz was acquired with a Digidata 1440A Analog-to-Digital Converter and analyzed with Axon pClamp 10.6 software. […]

CrGluCl-B Q279E mutant = experiment: Voltage-clamp of oocytes expressing CrGluCl-B Q279E mutant; assay type: cell-based, Caligus rogercresseyi; settings: 1 μM ivermectin, one-sample t-test
Description: To identify putative GluCl subunits, we queried the NCBI Transcriptome Shotgun Assembly Sequence (TSA) Database for “glutamate-gated chloride channel Caligus”. The obtained sequences were translated and BLASTed (tBLASTn) against the C. rogercresseyi genome (WGS, BioProject ID 280098, NCBI) and against transcripts of L. salmonis database (https://licebase.org/). Primers for each of the putative new subunit found were designed to span the full length of the open reading frame (ORF) for each of them (B-E) (S1 Table, and arrows in Fig 1). Complete cDNAs were generated by RT-PCR from adult C. rogercresseyi samples from which putative full-length peptide sequences of CrGluCl-B, CrGluCl-C, CrGluCl-D and CrGluCl-E were obtained. Each PCR product was cloned in pGEM-T easy vector and sequenced. […]
as §2

[2] = test system: coexpressed CrGluCl-D:CrGluCl-A; experiment: Voltage-clamp of oocytes coinjected with CrGluCl-D and CrGluCl-A; assay type: cell-based, Caligus rogercresseyi; settings: D:A ratio 1:1
Experimental: as §1, with “The oocytes were manually defolliculated on the same day of extraction and the following day 20 ng cRNA in nuclease-free water was injected into stage V-VI oocytes using a FemtoJet microinjector (Eppendorf). Finally, the injected oocytes were stored in 96 well plates containing Barth’s modified solution and kept at 16°C until experiment day.” left out
as §2

Row | Compound | nH (glutamate) (CrGluCl-A; 60 mV) | EC50 (CrGluCl-A; EC50 Glutamate, currents at 60 mV, Hill fit) | EC50 (DmGluClα) | current evoked by glutamate after ivermectin treatment (CrGluCl-B; 1 mM glutamate after 1 μM ivermectin, CrGluCl-B) | activation by ivermectin (EC50 Ivermectin column) (CrGluCl-B) | activation by ivermectin (EC50 Ivermectin column) (CrGluCl-B; listed as Ivermectin) | nH (ivermectin inhibition) (CrGluCl-B; CrGluCl-B, 3 mM glutamate) | IC50 (CrGluCl-B; CrGluCl-B, as restated in discussion, read-out: IC50 ivermectin inhibition of glutamate-activated current) | IC50 (CrGluCl-B; CrGluCl-B, continuous 3 mM glutamate, read-out: IC50 ivermectin antagonism of glutamate-elicited current) | Iver response to activation [1] | effect of ivermectin on current (CrGluCl-B Q279E mutant) | Iver response to activation [2]
1 | N[C@@H](CCC(=O)O)C(=O)O [glutamate, L-glutamate] | 1.65 ± 0.63 | 7.2 ± 2.7 µM | 23 µM |  |  |  |  |  |  |  |  | 
2 | ivermectin |  |  |  | 1.70 ± 1.69 μA | without effect | no effect; also recorded: Insensitive | -2.2 ± 0.5 and -2.2 | 0.34 µM | 0.342 ± 0.114 µM | Sensitive | small but significant effects | Sensitive
